{"source": "patent US9693997B2", "about": "“Antiviral compounds” (priority 2013, dated 2017)", "key": {"[1]": {"test_system": "pseudotyped VSV G particles (VSVpp) in Huh7-high CD81 cells", "assay": "microbe, parasite or virus in culture", "type": "cell-based, vesicular stomatitis virus", "conditions": "Vesicular stomatitis virus, 72 h, read-out: VSVpp (EC50, μM)"}, "[2]": {"test_system": "Pseudotyped HCV GT1b particles (HCVpp), entry into Huh7-high CD81 cells", "assay": "microbe, parasite or virus in culture", "type": "cell-based, HCV GT1b Con1 strain", "conditions": "Hepatitis C virus, GT1B, 72 h, read-out: HCVpp GT-1b (EC50, μM)"}}, "note": "Where a name gives a salt, the structure may show the parent alone."}
{"smiles": "CC(C)(NS(=O)(=O)c1ccc(-c2c(Cl)cc(Nc3n[nH]c(N)n3)cc2C(F)(F)F)cc1)C(F)(F)F", "note": "[Compound 165, 4′-(5-amino-1H-1,2,4-triazol-3-ylamino)-2′-chloro-N-(1,1,1-trifluoro-2-methylpropan-2-yl)-6′-(trifluoromethyl)biphenyl-4-sulfonamide]", "values": [{"measurement": "EC50", "setting": "[1]", "value": "> 10", "unit": "µM"}, {"measurement": "EC50", "setting": "[2]", "value": 0.009, "unit": "µM"}]}
{"smiles": "COc1cc(-c2c(Cl)cc(Nc3n[nH]c(N)n3)cc2C(F)(F)F)ccc1S(=O)(=O)N[C@H]1CC[C@H](O)CC1", "note": "[Compound 167, 4′-(5-amino-1H-1,2,4-triazol-3-ylamino)-2′-chloro-N-(trans-4-hydroxycyclohexyl)-3-methoxy-6′-(trifluoromethyl)biphenyl-4-sulfonamide]", "values": [{"measurement": "EC50", "setting": "[1]", "value": "> 10", "unit": "µM"}, {"measurement": "EC50", "setting": "[2]", "value": 0.009, "unit": "µM"}]}
{"smiles": "Nc1nc(Nc2cc(Cl)c(-c3ccc(S(=O)(=O)NC4CC4)cc3)c(C(F)(F)F)c2)n[nH]1", "note": "[Compound 169, 4′-(5-amino-1H-1,2,4-triazol-3-ylamino)-2′-chloro-N-cyclopropyl-6′-(trifluoromethyl)biphenyl-4-sulfonamide]", "values": [{"measurement": "EC50", "setting": "[1]", "value": 3.55, "unit": "µM"}, {"measurement": "EC50", "setting": "[2]", "value": 0.011, "unit": "µM"}]}
{"smiles": "Nc1nc(Nc2cc(Cl)c(-c3ccc(S(N)(=O)=O)cc3)c(C(F)(F)F)c2)n[nH]1", "note": "[Compound 171, 4′-(5-amino-1H-1,2,4-triazol-3-ylamino)-2′-chloro-6′-(trifluoromethyl)biphenyl-4-sulfonamide]", "values": [{"measurement": "EC50", "setting": "[1]", "value": 5.23, "unit": "µM"}, {"measurement": "EC50", "setting": "[2]", "value": 0.028, "unit": "µM"}]}
{"smiles": "Nc1nc(Nc2cc(Cl)c(-c3ccc(S(=O)(=O)NC4CC(O)C4)cc3)c(C(F)(F)F)c2)n[nH]1", "note": "(stereo not drawn) [Compound 172, 4′-(5-amino-1H-1,2,4-triazol-3-ylamino)-2′-chloro-N-(3-hydroxycyclobutyl)-6′-(trifluoromethyl)biphenyl-4-sulfonamide]", "values": [{"measurement": "EC50", "setting": "[1]", "value": 45.1, "unit": "µM"}, {"measurement": "EC50", "setting": "[2]", "value": 0.032, "unit": "µM"}]}
{"smiles": "Nc1nc(Nc2cc(Cl)c(-c3ccc(S(=O)(=O)N[C@H]4C[C@@H](O)C4)cc3)c(C(F)(F)F)c2)n[nH]1", "note": "[Compound 174, 4′-(5-amino-1H-1,2,4-triazol-3-ylamino)-2′-chloro-N-(cis-3-hydroxycyclobutyl)-6′-(trifluoromethyl)biphenyl-4-sulfonamide]", "values": [{"measurement": "EC50", "setting": "[1]", "value": "> 10", "unit": "µM"}, {"measurement": "EC50", "setting": "[2]", "value": 0.038, "unit": "µM"}]}
{"smiles": "COc1ccc(-c2c(Cl)cc(Nc3n[nH]c(N)n3)cc2C(F)(F)F)cc1S(=O)(=O)NCCO", "note": "[Compound 175, 4′-(5-amino-1H-1,2,4-triazol-3-ylamino)-2′-chloro-N-(2-hydroxyethyl)-4-methoxy-6′-(trifluoromethyl)biphenyl-3-sulfonamide]", "values": [{"measurement": "EC50", "setting": "[1]", "value": "> 10", "unit": "µM"}, {"measurement": "EC50", "setting": "[2]", "value": 0.018, "unit": "µM"}]}
{"smiles": "CC(C)(C)NS(=O)(=O)c1cccc(-c2c(Cl)cc(Nc3n[nH]c(N)n3)cc2C(F)(F)F)c1", "note": "[Compound 176, 4′-(5-amino-1H-1,2,4-triazol-3-ylamino)-N-tert-butyl-2′-chloro-6′-(trifluoromethyl)biphenyl-3-sulfonamide]", "values": [{"measurement": "EC50", "setting": "[1]", "value": 9.6, "unit": "µM"}, {"measurement": "EC50", "setting": "[2]", "value": 0.019, "unit": "µM"}]}
{"smiles": "COc1ccc(-c2c(Cl)cc(Nc3n[nH]c(N)n3)cc2C(F)(F)F)cc1S(=O)(=O)N1CCNCC1", "note": "[Compound 182, N3-(2-chloro-4′-methoxy-3′-(piperazin-1-ylsulfonyl)-6-(trifluoromethyl)biphenyl-4-yl)-1H-1,2,4-triazole-3,5-diamine hydrochloride]", "values": [{"measurement": "EC50", "setting": "[1]", "value": "> 10", "unit": "µM"}, {"measurement": "EC50", "setting": "[2]", "value": 0.044, "unit": "µM"}]}
{"smiles": "Nc1nc(Nc2cc(Cl)c(-c3ccc(S(=O)(=O)N4CCC(F)(F)CC4)cc3)c(C(F)(F)F)c2)n[nH]1", "note": "[Compound 183, N3-(2-chloro-4′-(4,4-difluoropiperidin-1-ylsulfonyl)-6-(trifluoromethyl)biphenyl-4-yl)-1H-1,2,4-triazole-3,5-diamine]", "values": [{"measurement": "EC50", "setting": "[1]", "value": 8.19, "unit": "µM"}, {"measurement": "EC50", "setting": "[2]", "value": 0.048, "unit": "µM"}]}
{"smiles": "Nc1nc(Nc2cc(Cl)c(-c3ccc(S(=O)(=O)C4CC4)cc3)c(C(F)(F)F)c2)n[nH]1", "note": "[Compound 188, N3-(2-chloro-4′-(cyclopropylsulfonyl)-6-(trifluoromethyl)biphenyl-4-yl)-1H-1,2,4-triazole-3,5-diamine]", "values": [{"measurement": "EC50", "setting": "[1]", "value": 0.09, "unit": "µM"}, {"measurement": "EC50", "setting": "[2]", "value": 0.089, "unit": "µM"}]}
{"smiles": "CNC(=O)c1ccc(-c2c(Cl)cc(Nc3n[nH]c(N)n3)cc2C(F)(F)F)cc1", "note": "[Compound 189, 4′-(5-amino-1H-1,2,4-triazol-3-ylamino)-2′-chloro-N-methyl-6′-(trifluoromethyl)biphenyl-4-carboxamide]", "values": [{"measurement": "EC50", "setting": "[1]", "value": 36.8, "unit": "µM"}, {"measurement": "EC50", "setting": "[2]", "value": 0.08, "unit": "µM"}]}
{"smiles": "COc1ccc(-c2c(Cl)cc(Nc3n[nH]c(N)n3)cc2C(F)(F)F)cc1S(=O)(=O)N[C@H]1CC[C@H](O)CC1", "note": "[Compound 190, 4′-(5-amino-1H-1,2,4-triazol-3-ylamino)-2′-chloro-N-(trans-4-hydroxycyclohexyl)-4-methoxy-6′-(trifluoromethyl)biphenyl-3-sulfonamide]", "values": [{"measurement": "EC50", "setting": "[1]", "value": 56.1, "unit": "µM"}, {"measurement": "EC50", "setting": "[2]", "value": 0.046, "unit": "µM"}]}
{"smiles": "Nc1nc(Nc2cc(Cl)c(-c3ccc(S(=O)(=O)N4CC(O)C4)cc3)c(C(F)(F)F)c2)n[nH]1", "note": "[Compound 191, 1-(4′-(5-amino-1H-1,2,4-triazol-3-ylamino)-2′-chloro-6′-(trifluoromethyl)biphenyl-4-ylsulfonyl)azetidin-3-ol]", "values": [{"measurement": "EC50", "setting": "[1]", "value": 25, "unit": "µM"}, {"measurement": "EC50", "setting": "[2]", "value": 0.069, "unit": "µM"}]}
{"smiles": "Nc1nc(Nc2cc(Cl)c(-c3cccc(S(=O)(=O)N4CCCC4)c3)c(C(F)(F)F)c2)n[nH]1", "note": "[Compound 192, N3-(2-chloro-3′-(pyrrolidin-1-ylsulfonyl)-6-(trifluoromethyl)biphenyl-4-yl)-1H-1,2,4-triazole-3,5-diamine]", "values": [{"measurement": "EC50", "setting": "[1]", "value": 17.2, "unit": "µM"}, {"measurement": "EC50", "setting": "[2]", "value": 0.084, "unit": "µM"}]}
{"smiles": "CC(C)(C)NS(=O)(=O)c1cc(-c2c(Cl)cc(Nc3n[nH]c(N)n3)cc2C(F)(F)F)ccc1OC(F)(F)F", "note": "[Compound 193, 4′-(5-amino-1H-1,2,4-triazol-3-ylamino)-N-tert-butyl-2′-chloro-4-(trifluoromethoxy)-6′-(trifluoromethyl)biphenyl-3-sulfonamide]", "values": [{"measurement": "EC50", "setting": "[1]", "value": 4.97, "unit": "µM"}, {"measurement": "EC50", "setting": "[2]", "value": 0.075, "unit": "µM"}]}
{"smiles": "Nc1nc(Nc2cc(Cl)c(-c3ccc(S(=O)(=O)N4CCC(O)CC4)cc3)c(C(F)(F)F)c2)n[nH]1", "note": "[Compound 194, 1-(4′-(5-amino-1H-1,2,4-triazol-3-ylamino)-2′-chloro-6′-(trifluoromethyl)biphenyl-4-ylsulfonyl)piperidin-4-ol]", "values": [{"measurement": "EC50", "setting": "[1]", "value": 22.8, "unit": "µM"}, {"measurement": "EC50", "setting": "[2]", "value": 0.115, "unit": "µM"}]}
{"smiles": "CS(=O)(=O)c1cccc(-c2c(Cl)cc(Nc3n[nH]c(N)n3)cc2C(F)(F)F)c1", "note": "[Compound 195, N3-(2-chloro-3′-(methylsulfonyl)-6-(trifluoromethyl)biphenyl-4-yl)-1H-1,2,4-triazole-3,5-diamine]", "values": [{"measurement": "EC50", "setting": "[1]", "value": 39.7, "unit": "µM"}, {"measurement": "EC50", "setting": "[2]", "value": 0.212, "unit": "µM"}]}
{"smiles": "CN(C(C)(C)C)S(=O)(=O)c1cccc(-c2c(Cl)cc(Nc3n[nH]c(N)n3)cc2C(F)(F)F)c1", "note": "[Compound 196, 4′-(5-amino-1H-1,2,4-triazol-3-ylamino)-N-tert-butyl-2′-chloro-N-methyl-6′-(trifluoromethyl)biphenyl-3-sulfonamide]", "values": [{"measurement": "EC50", "setting": "[1]", "value": "> 10", "unit": "µM"}, {"measurement": "EC50", "setting": "[2]", "value": 0.126, "unit": "µM"}]}
{"smiles": "Nc1nc(Nc2cc(Cl)c(-c3cccc(S(N)(=O)=O)c3)c(C(F)(F)F)c2)n[nH]1", "note": "[Compound 197, 4′-(5-amino-1H-1,2,4-triazol-3-ylamino)-2′-chloro-6′-(trifluoromethyl)biphenyl-3-sulfonamide 2,2,2-trifluoroacetate]", "values": [{"measurement": "EC50", "setting": "[1]", "value": "> 10", "unit": "µM"}, {"measurement": "EC50", "setting": "[2]", "value": 0.249, "unit": "µM"}]}
{"smiles": "CN(C)S(=O)(=O)c1cccc(-c2c(Cl)cc(Nc3n[nH]c(N)n3)cc2C(F)(F)F)c1", "note": "[Compound 198, 4′-(5-amino-1H-1,2,4-triazol-3-ylamino)-2′-chloro-N,N-dimethyl-6′-(trifluoromethyl)biphenyl-3-sulfonamide]", "values": [{"measurement": "EC50", "setting": "[1]", "value": 21.3, "unit": "µM"}, {"measurement": "EC50", "setting": "[2]", "value": 0.268, "unit": "µM"}]}
